We go through three compounds from patent US11649251B2, “Substituted inhibitors of menin-MLL and methods of use” (Kura Oncology, Inc., priority 2017, dated 2023).

The test addresses T1, Menin MLL 4-43 (Homo sapiens, UniProt O00255).
T1 sequence (O00255 1-610): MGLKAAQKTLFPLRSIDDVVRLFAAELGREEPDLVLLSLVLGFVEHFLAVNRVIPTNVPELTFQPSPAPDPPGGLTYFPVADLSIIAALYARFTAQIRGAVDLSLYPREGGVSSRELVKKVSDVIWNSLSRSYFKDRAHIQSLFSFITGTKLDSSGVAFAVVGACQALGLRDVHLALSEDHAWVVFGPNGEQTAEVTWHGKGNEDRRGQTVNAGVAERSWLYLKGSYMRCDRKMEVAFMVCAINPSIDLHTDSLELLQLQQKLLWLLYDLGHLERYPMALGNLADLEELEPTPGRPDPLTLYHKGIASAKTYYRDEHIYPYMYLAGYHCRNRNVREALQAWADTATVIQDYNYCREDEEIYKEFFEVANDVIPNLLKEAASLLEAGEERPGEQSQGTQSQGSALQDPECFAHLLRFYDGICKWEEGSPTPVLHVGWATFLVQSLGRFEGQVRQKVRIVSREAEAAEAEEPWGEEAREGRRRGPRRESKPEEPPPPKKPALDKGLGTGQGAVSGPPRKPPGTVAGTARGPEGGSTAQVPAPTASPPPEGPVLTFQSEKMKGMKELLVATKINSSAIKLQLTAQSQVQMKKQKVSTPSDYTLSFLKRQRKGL
Briefly: Fluorescence polarization (FP) competition assay of the menin-MLL interaction. To be noted: fluorescence polarization competition with fluorescein-labeled MLL peptide. Format: binding. The text has this:
This example illustrates an assay effective in monitoring the binding of MLL to menin. […] A fluorescein-labeled peptide containing the high affinity menin binding motif found in MLL was produced according to Yokoyama et al. (Cell, 2005, 123(2): 207-218), herein incorporated by reference in its entirety. Binding of the labeled peptide (1.7 kDa) to the much larger menin (˜67 kDa) is accompanied by a significant change in the rotational correlation time of the fluorophore, resulting in a substantial increase in the fluorescence polarization and fluorescence anisotropy (excitation at 500 nm, emission at 525 nm).

In turn, `CNc1nc(N2CC3CN(Cc4ccc5[nH]c(C#N)cc5c4C)CC3C2)c2cc(CC(F)(F)F)sc2n1` (stereo not drawn) [Compound 127] came in with an IC50 of 50 to 250 nM. To `CNc1nc(N2CCC3CN(Cc4ccc5[nH]c(C#N)cc5c4C)CC3C2)c2cc(CC(F)(F)F)sc2n1` (stereo not drawn) [Compound 153] belongs more than 1000 nM. On to `CCS(=O)(=O)Nc1ccc(CN2CCC3(CCN(c4nc(NC)nc5sc(CC(F)(F)F)cc45)C3)C2)cc1` (stereo not drawn) [Compound 126], for which the IC50 lay in the range of 50 to 250 nM.

The IC50 is the concentration that inhibits the measured activity by half.
